Assays:
Assay in all cases: receptor-mediated PP2C (HAB1) inhibition in vitro assay
Format in all cases: biochemical
PYL6 = biological target: T1, PYL6 (Arabidopsis thaliana, UniProt Q8S8E3); conditions: for remaining activity at 50 µM: 50 uM of the test compound; for IC50: Table XII-B, calculated from dose curves, read-out: PP2C Activity (IC50 in uM) PYL6
T1 construct: 6X-His; made in house; host or cells: E. coli BL21[DE3]pLysS
T1 sequence (Q8S8E3 1-215): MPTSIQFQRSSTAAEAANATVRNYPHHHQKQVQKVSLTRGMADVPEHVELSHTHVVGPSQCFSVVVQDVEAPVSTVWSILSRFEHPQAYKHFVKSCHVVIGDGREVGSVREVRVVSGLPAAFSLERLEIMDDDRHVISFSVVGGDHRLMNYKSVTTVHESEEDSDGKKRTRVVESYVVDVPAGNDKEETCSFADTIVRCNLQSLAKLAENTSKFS
T1 sequence (Q9CAJ0 23-511 partner): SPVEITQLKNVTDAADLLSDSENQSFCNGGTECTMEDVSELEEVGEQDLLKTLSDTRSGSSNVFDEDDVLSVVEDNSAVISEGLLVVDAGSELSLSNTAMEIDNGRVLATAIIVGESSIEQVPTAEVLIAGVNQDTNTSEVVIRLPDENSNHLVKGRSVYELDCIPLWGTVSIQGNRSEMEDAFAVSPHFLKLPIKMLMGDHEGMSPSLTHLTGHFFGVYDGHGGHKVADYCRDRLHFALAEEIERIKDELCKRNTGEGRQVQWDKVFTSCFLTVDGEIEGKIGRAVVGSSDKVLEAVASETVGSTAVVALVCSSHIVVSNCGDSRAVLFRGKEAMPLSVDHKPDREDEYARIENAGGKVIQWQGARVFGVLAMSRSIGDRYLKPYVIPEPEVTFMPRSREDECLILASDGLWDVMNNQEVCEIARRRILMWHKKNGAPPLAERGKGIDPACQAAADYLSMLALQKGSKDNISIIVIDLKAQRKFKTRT
In short: (§1)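 Fluorogenic readout: 4-methylumbelliferyl-phosphate hydrolysis by 50 nM GST-HAB1 plus 2:1 His-receptor; Tris-OAc pH 7.9, NaCl, 1 mM MnCl2, β-ME. Compounds at 25 μM or 50 uM single dose; IC50 from dose curves for selected compounds.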

PYL4 = biological target: T2, PYL4 (Arabidopsis thaliana, UniProt O80920); conditions: for remaining activity at 50 µM: 50 uM of the test compound; for IC50: Table XII-B, calculated from dose curves, read-out: PP2C Activity (IC50 in uM) PYL4
T2 construct: 6X-His; made in house; host or cells: E. coli BL21[DE3]pLysS
T2 sequence (O80920 1-207): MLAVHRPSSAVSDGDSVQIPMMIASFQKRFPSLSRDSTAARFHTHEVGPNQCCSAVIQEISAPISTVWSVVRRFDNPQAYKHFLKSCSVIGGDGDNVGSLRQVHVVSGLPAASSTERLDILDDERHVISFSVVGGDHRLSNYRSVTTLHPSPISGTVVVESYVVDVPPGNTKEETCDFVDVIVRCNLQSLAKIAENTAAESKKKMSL
T2 sequence (Q9CAJ0 23-511 partner): T1 sequence (Q9CAJ0 23-511 partner)
In short: (§2)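 Compounds, tested at 25 μM or 50 uM with ABA at 10 uM, were incubated with recombinant receptor and 50 nM GST-HAB1 (2:1 ratio) in MnCl2-containing Tris-OAc buffer, pH 7.9. Phosphatase activity was followed by 4-methylumbelliferyl-phosphate fluorescence.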

PYL8 = biological target: T3, PYL8 (Arabidopsis thaliana, UniProt Q9FGM1); conditions: for remaining activity at 50 µM: 50 uM of the test compound; for IC50: Table XII-B, calculated from dose curves, read-out: PP2C Activity (IC50 in uM) PYL8
T3 construct: 6X-His; made in house; host or cells: E. coli BL21[DE3]pLysS
T3 sequence (Q9FGM1 1-188): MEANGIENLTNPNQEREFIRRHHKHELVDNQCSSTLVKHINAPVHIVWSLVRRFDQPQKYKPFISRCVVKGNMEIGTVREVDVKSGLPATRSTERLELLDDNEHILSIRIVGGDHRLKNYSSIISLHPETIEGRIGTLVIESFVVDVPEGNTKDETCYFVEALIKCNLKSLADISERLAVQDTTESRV
T3 sequence (Q9CAJ0 23-511 partner): T1 sequence (Q9CAJ0 23-511 partner)
In short: as §1

PYL10 = biological target: T4, PYL10 (Arabidopsis thaliana, UniProt Q8H1R0); conditions: for remaining activity at 50 µM: 50 uM of the test compound; for IC50: Table XII-B, calculated from dose curves, read-out: PP2C Activity (IC50 in uM) PYL10
T4 construct: 6X-His; made in house; host or cells: E. coli BL21[DE3]pLysS
T4 sequence (Q8H1R0 1-183): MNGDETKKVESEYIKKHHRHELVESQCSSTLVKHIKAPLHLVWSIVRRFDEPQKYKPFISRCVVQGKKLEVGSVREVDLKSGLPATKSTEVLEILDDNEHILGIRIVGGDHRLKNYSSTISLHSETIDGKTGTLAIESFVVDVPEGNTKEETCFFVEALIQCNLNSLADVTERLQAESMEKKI
T4 sequence (Q9CAJ0 23-511 partner): T1 sequence (Q9CAJ0 23-511 partner)
In short: as §1

PYL11 = biological target: T5, PYL11 (Arabidopsis thaliana, UniProt Q9FJ50); conditions: for remaining activity at 50 µM: 50 uM of the test compound; for IC50: Table XII-B, calculated from dose curves, read-out: PP2C Activity (IC50 in uM) PYL11
T5 construct: made in house; host or cells: E. coli BL21[DE3]pLysS
T5 sequence (Q9FJ50 1-161): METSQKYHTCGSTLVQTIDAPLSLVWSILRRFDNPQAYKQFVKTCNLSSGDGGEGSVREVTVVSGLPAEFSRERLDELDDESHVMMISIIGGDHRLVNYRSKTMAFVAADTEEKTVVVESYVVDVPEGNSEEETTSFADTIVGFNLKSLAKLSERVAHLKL
T5 sequence (Q9CAJ0 23-511 partner): T1 sequence (Q9CAJ0 23-511 partner)
In short: as §2

PYL5 = biological target: T6, PYL5 (Arabidopsis thaliana, UniProt Q9FLB1); conditions: for remaining activity at 50 µM: 50 uM of the test compound; for IC50: Table XII-B, calculated from dose curves, read-out: PP2C Activity (IC50 in uM) PYL5
T6 construct: 6X-His; made in house; host or cells: E. coli BL21[DE3]pLysS
T6 sequence (Q9FLB1 1-203): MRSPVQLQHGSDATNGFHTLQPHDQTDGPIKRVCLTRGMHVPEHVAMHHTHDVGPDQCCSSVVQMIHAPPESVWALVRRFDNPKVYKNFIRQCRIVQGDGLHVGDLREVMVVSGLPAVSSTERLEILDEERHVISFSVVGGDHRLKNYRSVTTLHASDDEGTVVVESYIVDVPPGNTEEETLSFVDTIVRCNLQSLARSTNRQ
T6 sequence (Q9CAJ0 23-511 partner): T1 sequence (Q9CAJ0 23-511 partner)
In short: as §2

Structure (SMILES) | remaining activity at 50 µM (PYL6) | IC50 (PYL6) | remaining activity at 50 µM (PYL4) | IC50 (PYL4) | remaining activity at 50 µM (PYL8) | IC50 (PYL8) | remaining activity at 50 µM (PYL10) | IC50 (PYL10) | remaining activity at 50 µM (PYL11) | IC50 (PYL11) | remaining activity at 50 µM (PYL5) | IC50 (PYL5)
O=C(NS(=O)(=O)Cc1ccc([N+](=O)[O-])cc1)C1(c2ccccc2)CCCCC1 [Compound 63] | 108% | > 50 µM | 103% | > 50 µM | 96.6% | > 50 µM | 88.9% | > 50 µM | 92.6% | > 50 µM | 107% | > 50 µM
O=C(NS(=O)(=O)Cc1ccc(F)cc1)C1(c2ccccc2)CCCCC1 [Compound 64] | 109% | > 50 µM | 105% | > 50 µM | 101% | > 50 µM | 89.8% | > 50 µM | 97.5% | > 50 µM | 103% | > 50 µM
CC(C)COC(=O)NS(=O)(=O)Cc1ccc(C#N)cc1 [Compound 65, 2-Methylpropyl N-[(4-cyanophenyl)methanesulfonyl]carbamate] | 58.9% | > 50 µM | 95.5% | > 50 µM | 35.8% | 20.4 µM | 39.2% | 19.2 µM | 42.1% |  | 23.6% | 14.2 µM
CC1CCC(C(=O)NS(=O)(=O)Cc2ccc(C#N)cc2)(c2ccc(F)cc2)CC1 (centres unmarked) [Compound 67, N-[(4-Cyanophenyl)methanesulfonyl]-1-(4-fluorophenyl)-4-methylcyclohexane-1-carboxamide] | 46.6% |  | 91.9% | > 50 µM | 25.8% | 9.6 µM | 48.2% |  | 14.7% | 3.13 µM | 43% | 25.3 µM
CC1(C)CCC(C(=O)NS(=O)(=O)Cc2ccc(C#N)cc2)(c2ccc(F)cc2)CC1 [Compound 68, N-[(4-Cyanophenyl)methanesulfonyl]-1-(4-fluorophenyl)-4,4-dimethylcyclohexane-1-carboxamide] | 46.6% |  | 94% | > 50 µM | 57.5% | > 50 µM | 83.3% | > 50 µM | 16.2% | 2.22 µM | 103% | > 50 µM
N#Cc1ccc(CS(=O)(=O)NC(=O)C2(c3ccccc3)CCCCC2)cc1 [Compound 69, N-[(4-Cyanophenyl)methanesulfonyl]-1-phenylcyclohexane-1-carboxamide] | 72.6% | > 50 µM | 95% | > 50 µM | 14.7% | 0.75 µM | 27.3% | 1.69 µM | 13.5% | 2.53 µM | 119% | > 50 µM
N#Cc1ccc(CS(=O)(=O)NC(=O)C(c2ccccc2)c2ccccc2)cc1 [Compound 71, N-[(4-Cyanophenyl)methanesulfonyl]-2,2-diphenylacetamide] | 96.9% | > 50 µM | 93.2% | > 50 µM | 96.8% | > 50 µM | 86.5% | > 50 µM | 43.2% | 25 µM | 102% | > 50 µM
N#Cc1ccc(CS(=O)(=O)NC(=O)C(c2ccc(F)cc2)c2ccc(F)cc2)cc1 [Compound 72, N-[(4-Cyanophenyl)methanesulfonyl]-2,2-bis(4-fluorophenyl)acetamide] | 95.1% | > 50 µM | 90.1% | > 50 µM | 98.5% | > 50 µM | 98% | > 50 µM | 37.4% | 25 µM | 102% | > 50 µM
N#Cc1ccc(CS(=O)(=O)NC(=O)C(C2CCCCC2)C2CCCCC2)cc1 [Compound 73, N-[(4-Cyanophenyl)methanesulfonyl]-2,2-cyclohexylacetamide] | 91% | > 50 µM | 98.2% | > 50 µM | 66.1% | > 50 µM | 85.7% | > 50 µM | 26.9% | 22.4 µM | 110% | > 50 µM
N#Cc1ccc(CS(=O)(=O)NC(=O)C2(c3cccs3)CCCCC2)cc1 [Compound 75, N-[(4-Cyanophenyl)methanesulfonyl]-1-(thiophen-2-yl)cyclohexane-1-carboxamide] | 57.2% | > 50 µM | 98% | > 50 µM | 14.9% | 0.134 µM | 27% | 0.38 µM | 9.8% | 0.39 µM | 81.8% | > 50 µM
N#Cc1ccc(CS(=O)(=O)NC(=O)C2(c3ccsc3)CCCCC2)cc1 [Compound 78, N-[(4-Cyanophenyl)methanesulfonyl]-1-(thiophen-3-yl)cyclohexane-1-carboxamide] | 44.9% | 25 µM | 102% | > 50 µM | 14.3% | 0.073 µM | 25.6% | 0.25 µM | 9.9% | 0.19 µM | 68.5% | > 50 µM
N#Cc1ccc(CS(=O)(=O)NC(=O)C2(c3ccsc3)CCCCC2)cc1Br [Compound 106, N-[(4-Cyano-3-bromophenyl)methanesulfonyl]-1-(thiophen-3-yl)cyclohexane-1-carboxamide] | 17.6% | 7.84 µM | 89.2% | > 50 µM | 13.6% | 0.037 µM | 22.5% | 0.022 µM | 7.8% | 0.065 µM | 11.9% | 7.26 µM

Source: patent US10757937B2, “Sulfonamides that activate ABA receptors” (The Regents of the University of California, priority 2014, dated 2020)
